Experimental data published in ChEMBL document CHEMBL5550148, “Systematic alanine and stapling mutational analysis of antimicrobial peptide Chem-KVL” (Bioorg Med Chem Lett, 2024).
In brackets after ≈: the same amount, converted by molar mass. Bridge positions count the residues as written; N and C are the ends. Square brackets hold non-standard residues; d marks the D form. Peptide text beside a SMILES is read from it. S5 = C=CCCC[C@](C)(N)C(=O)O

Legend:
[1] = Retention time of compound by HPLC analysis; assay type: physicochemical
Klebsiella pneumoniae = assay: Antibacterial activity against Klebsiella pneumoniae ATCC 13883 assessed as inhibition of bacterial growth; assay type: functional
Pseudomonas aeruginosa [2] = assay: Antibacterial activity against Pseudomonas aeruginosa ATCC 27853 assessed as inhibition of bacterial growth; assay type: functional
Acinetobacter baumannii = assay: Antibacterial activity against Acinetobacter baumannii ATCC 17978 assessed as inhibition of bacterial growth; assay type: functional
Escherichia coli [3] = assay: Antibacterial activity against Escherichia coli ATCC 25922 assessed as inhibition of bacterial growth; assay type: functional
Salmonella typhimurium = assay: Antibacterial activity against Salmonella typhimurium clinical isolate assessed as inhibition of bacterial growth; assay type: functional, Salmonella enterica subsp. enterica serovar Typhimurium; settings: Salmonella enterica
Staphylococcus aureus [4] = assay: Antibacterial activity against Staphylococcus aureus ATCC 25923 assessed as inhibition of bacterial growth; assay type: functional
chymotrypsin = chymotrypsin (Homo sapiens, UniProt P17538+P40313+Q6GPI1+Q99895); assay: Proteolytic stability of compound assessed as chymotrypsin (unknown origin) mediated drug degradation measured within 4 hrs by HPLC analysis; assay type: ADME, protein assay; settings: read-out: Drug degradation
[5] = Cytotoxicity against mouse RAW264.7 cells; assay type: toxicity, cell-based
Pseudomonas aeruginosa [6] = assay: Potency index, ratio of Chem-KVL MIC to test compound MIC for antibacterial activity against Pseudomonas aeruginosa ATCC 27853; assay type: functional
Staphylococcus aureus [7] = assay: Potency index, ratio of Chem-KVL MIC to test compound MIC for antibacterial activity against Staphylococcus aureus ATCC 25923; assay type: functional
Escherichia coli [8] = assay: Potency index, ratio of Chem-KVL MIC to test compound MIC for antibacterial activity against Escherichia coli ATCC 25922; assay type: functional

| Molecule | Time [1] | MIC (Klebsiella pneumoniae) | MIC (Pseudomonas aeruginosa [2]) | MIC (Acinetobacter baumannii) | MIC (Escherichia coli [3]) | MIC (Salmonella typhimurium) | MIC (Staphylococcus aureus [4]) | metabolised at 4 h (chymotrypsin) | IC50 [5] | Ratio (Pseudomonas aeruginosa [6]) | Ratio (Staphylococcus aureus [7]) | Ratio (Escherichia coli [8]) |
| --- | --- | --- | --- | --- | --- | --- | --- | --- | --- | --- | --- | --- |
| CC(=O)N[C@@H](CCCCN)C(=O)N[C@H](C(=O)N[C@@H](CC(C)C)C(=O)NCC(=O)N[C@@H](CCCNC(=N)N)C(=O)N[C@@H](CC(C)C)C(=O)N[C@H](C(=O)N[C@@H](CCCCN)C(=O)N[C@H](C(=O)N[C@@]1(C)CCC/C=C\CCC[C@@](C)(C(N)=O)NC(=O)[C@H](CC(C)C)NC(=O)[C@H](CCCNC(=N)N)NC(=O)CNC1=O)C(C)C)C(C)C)C(C)C (Ac-KVLGRLVKV[S5]GRL[S5]-NH2; staple (Z) 10-14) | 28.3 min | 64 µg/mL (≈ 39.3 µM) | 8 µg/mL (≈ 4.91 µM) | 32 µg/mL (≈ 19.6 µM) | 32 µg/mL (≈ 19.6 µM) | 64 µg/mL (≈ 39.3 µM) | 4 µg/mL (≈ 2.46 µM) |  |  |  |  |  |
| CC(=O)N[C@@H](CCCCN)C(=O)N[C@H](C(=O)N[C@@H](CC(C)C)C(=O)NCC(=O)N[C@@H](CCCNC(=N)N)C(=O)N[C@@H](CC(C)C)C(=O)N[C@H](C(=O)N[C@@H](CCCCN)C(=O)N[C@@]1(C)CCC/C=C\CCC[C@@](C)(C(=O)N[C@H](C(N)=O)C(C)C)NC(=O)[C@H](CCCNC(=N)N)NC(=O)CNC(=O)[C@H](CC(C)C)NC1=O)C(C)C)C(C)C (Ac-KVLGRLVK[S5]LGR[S5]V-NH2; staple (Z) 9-13) | 27.9 min | 64 µg/mL (≈ 39.3 µM) | 4 µg/mL (≈ 2.46 µM) | 32 µg/mL (≈ 19.6 µM) | 32 µg/mL (≈ 19.6 µM) | 64 µg/mL (≈ 39.3 µM) | 8 µg/mL (≈ 4.91 µM) |  |  |  |  |  |
| CC(=O)N[C@@H](CCCCN)C(=O)N[C@H](C(=O)N[C@@H](CC(C)C)C(=O)NCC(=O)N[C@@H](CCCNC(=N)N)C(=O)N[C@@H](CC(C)C)C(=O)N[C@@]1(C)CCC/C=C\CCC[C@@](C)(C(=O)N[C@@H](CCCNC(=N)N)C(=O)N[C@@H](CC(C)C)C(=O)N[C@H](C(N)=O)C(C)C)NC(=O)[C@H](CC(C)C)NC(=O)[C@H](C(C)C)NC(=O)[C@H](CCCCN)NC1=O)C(C)C (Ac-KVLGRL[S5]KVL[S5]RLV-NH2; staple (Z) 7-11) | 30.6 min | > 64 µg/mL | 32 µg/mL (≈ 19 µM) | > 64 µg/mL | > 64 µg/mL | > 64 µg/mL | 16 µg/mL (≈ 9.49 µM) |  |  |  |  |  |
| CC(=O)N[C@@H](CCCCN)C(=O)N[C@H](C(=O)N[C@@H](CC(C)C)C(=O)NCC(=O)N[C@@]1(C)CCC/C=C\CCC[C@@](C)(C(=O)N[C@@H](CC(C)C)C(=O)NCC(=O)N[C@@H](CCCNC(=N)N)C(=O)N[C@@H](CC(C)C)C(=O)N[C@H](C(=O)O)C(C)C)NC(=O)[C@H](CCCCN)NC(=O)[C@H](C(C)C)NC(=O)[C@H](CC(C)C)NC1=O)C(C)C (Ac-KVLG[S5]LVK[S5]LGRLV-OH; staple (Z) 5-9) | 30.8 min | > 64 µg/mL | 4 µg/mL (≈ 2.52 µM) | 64 µg/mL (≈ 40.3 µM) | 64 µg/mL (≈ 40.3 µM) | > 64 µg/mL | 4 µg/mL (≈ 2.52 µM) |  |  |  |  |  |
| CC(=O)N[C@@H](CCCCN)C(=O)N[C@H](C(=O)N[C@@]1(C)CCC/C=C\CCC[C@@](C)(C(=O)N[C@@H](CCCCN)C(=O)N[C@H](C(=O)N[C@@H](CC(C)C)C(=O)NCC(=O)N[C@@H](CCCNC(=N)N)C(=O)N[C@@H](CC(C)C)C(=O)N[C@H](C(N)=O)C(C)C)C(C)C)NC(=O)[C@H](CC(C)C)NC(=O)[C@H](CCCNC(=N)N)NC(=O)CNC1=O)C(C)C (Ac-KV[S5]GRL[S5]KVLGRLV-NH2; staple (Z) 3-7) | 27.1 min | > 64 µg/mL | 16 µg/mL (≈ 9.82 µM) | 64 µg/mL (≈ 39.3 µM) | 64 µg/mL (≈ 39.3 µM) | > 64 µg/mL | 4 µg/mL (≈ 2.46 µM) |  |  |  |  |  |
| CC(=O)N[C@@H](CCCCN)C(=O)N[C@@]1(C)CCC/C=C\CCC[C@@](C)(C(=O)N[C@H](C(=O)N[C@@H](CCCCN)C(=O)N[C@H](C(=O)N[C@@H](CC(C)C)C(=O)NCC(=O)N[C@@H](CCCNC(=N)N)C(=O)N[C@@H](CC(C)C)C(=O)N[C@H](C(N)=O)C(C)C)C(C)C)C(C)C)NC(=O)[C@H](CCCNC(=N)N)NC(=O)CNC(=O)[C@H](CC(C)C)NC1=O (Ac-K[S5]LGR[S5]VKVLGRLV-NH2; staple (Z) 2-6) | 27.3 min | 32 µg/mL (≈ 19.6 µM) | 4 µg/mL (≈ 2.46 µM) | 16 µg/mL (≈ 9.82 µM) | 16 µg/mL (≈ 9.82 µM) | 32 µg/mL (≈ 19.6 µM) | 8 µg/mL (≈ 4.91 µM) | 100% | 4.11 µg/mL (≈ 2.52 µM) |  |  |  |
| Ac-AVLGRLVKVLGRLV-NH2 | 27.8 min | > 64 µg/mL | 64 µg/mL | > 64 µg/mL | > 64 µg/mL | > 64 µg/mL | 16 µg/mL |  |  |  |  |  |
| Ac-KALGRLVKVLGRLV-NH2 | 24.4 min | 32 µg/mL | 64 µg/mL | 16 µg/mL | 8 µg/mL | 16 µg/mL | 32 µg/mL |  |  |  |  |  |
| Ac-KVAGRLVKVLGRLV-NH2 | 22.4 min | > 64 µg/mL | > 64 µg/mL | > 64 µg/mL | 64 µg/mL | 64 µg/mL | > 64 µg/mL |  |  |  |  |  |
| Ac-KVLARLVKVLGRLV-NH2 | 26.8 min | 64 µg/mL | 32 µg/mL | 32 µg/mL | 32 µg/mL | 64 µg/mL | 4 µg/mL |  |  |  |  |  |
| Ac-KVLGALVKVLGRLV-NH2 | 28.4 min | 32 µg/mL | 16 µg/mL | 32 µg/mL | 32 µg/mL | 64 µg/mL | 8 µg/mL |  |  |  |  |  |
| Ac-KVLGRAVKVLGRLV-NH2 | 22.3 min | > 64 µg/mL | > 64 µg/mL | > 64 µg/mL | > 64 µg/mL | 64 µg/mL | > 64 µg/mL |  |  |  |  |  |
| Ac-KVLGRLAKVLGRLV-NH2 | 24.5 min | 64 µg/mL | 64 µg/mL | 32 µg/mL | 8 µg/mL | 16 µg/mL | 32 µg/mL |  |  |  |  |  |
| Ac-KVLGRLVAVLGRLV-NH2 | 27.4 min | 64 µg/mL | 64 µg/mL | > 64 µg/mL | 64 µg/mL | > 64 µg/mL | 16 µg/mL |  |  |  |  |  |
| Ac-KVLGRLVKALGRLV-NH2 | 25.2 min | > 64 µg/mL | > 64 µg/mL | > 64 µg/mL | > 64 µg/mL | 64 µg/mL | > 64 µg/mL |  |  |  |  |  |
| Ac-KVLGRLVKVAGRLV-NH2 | 22 min | > 64 µg/mL | > 64 µg/mL | > 64 µg/mL | > 64 µg/mL | 64 µg/mL | > 64 µg/mL |  |  |  |  |  |
| Ac-KVLGRLVKVLARLV-NH2 | 27.4 min | 16 µg/mL | 8 µg/mL | 16 µg/mL | 16 µg/mL | 32 µg/mL | 8 µg/mL |  |  | 2 | 2 | 2 |
| Ac-KVLGRLVKVLGALV-NH2 | 27 min | > 64 µg/mL | 16 µg/mL | > 64 µg/mL | > 64 µg/mL | > 64 µg/mL | 32 µg/mL |  |  |  |  |  |
| Ac-KVLGRLVKVLGRAV-NH2 | 22.7 min | > 64 µg/mL | > 64 µg/mL | 64 µg/mL | > 64 µg/mL | 32 µg/mL | > 64 µg/mL |  |  |  |  |  |
| Ac-KVLGRLVKVLGRLA-NH2 | 24.2 min | 64 µg/mL | > 64 µg/mL | 32 µg/mL | 16 µg/mL | 32 µg/mL | 64 µg/mL |  |  |  |  |  |
| Ac-KVLGRLVKVLGRLV-NH2 | 25.1 min | 16 µg/mL | 32 µg/mL | 16 µg/mL | 32 µg/mL | 32 µg/mL | 16 µg/mL | 100% | 3.7 µg/mL |  |  |  |
